Data reported in patent US20240148709A1, “METHODS OF TREATING EYE PAIN AND EYE DISORDERS” (Aisa Pharma, Inc., priority 2022, published 2024).

Tested on: participants with SSc-RP
Test: Scleroderma Health Assessment Questionnaire (SHAQ), Phase 2a study Part A
Type: in vivo, human
Settings: cilnidipine 10 mg and/or tadalafil 5 mg arms
Procedure: Part A—double-blind, placebo-controlled, parallel-group, dose selection, will assess the safety and efficacy of two doses of cilnidipine (10 mg and 20 mg), alone and in combination with tadalafil. A total of 36 participants will be randomized to one of six prespecified treatment arms. Refer to FIG. 1 for treatment arms in Part A of the study. Dosing last for 12 (±2) days in which participants will self-administer daily doses of assigned treatment in the morning. Each participant will take one capsule and one tablet to blind the active therapy being received.
The standard, validated, patient reported outcome measures tool for SSc patients, the SHAQ, will be collected at the time points specified in the study schedules (FIG. 2 and FIGS. 3A and 3B) to assess the participant's quality of life. The SHAQ includes a Raynaud's VAS that will also be reported separately.
Results: Patients in the study were administered the Scleroderma Health Assessment Questionnaire (SHAQ) at the time of study entry and during clinic visits following the treatment period. The study is a two-part, parallel arm design, prospective, double-blind, randomized study conducted in Australia (Flinders Medical Center). 27 patients were randomized into the first phase of the study, following which a DSMB meeting was held, which reviewed data on the primary study endpoint and key Raynaud's secondary endpoints. Data on the SHAQ was not available for the DSMB to review. The mITT population, in which any data was available post treatment was 24 patients was the analysis population for this first part of the study. The second part (i.e., part B) of the study will randomize 36 patients in a double blind, randomized, prospective, placebo controlled, crossover study. In the first part (i.e., Part A) of the study for which data is presented, patients were randomized into 6 groups, cilnidipine at two doses (10 and 20 mg) alone and in combination with tadalafil 5 mg, tadalafil 5 mg alone, and placebo. […] The DSMB recommended that the study proceed into its double blind prospective cross overpowered second phase and compare cilnidipine 20 mg alone to placebo.

For COCCOC(=O)C1=C(C)NC(C)=C(C(=O)OC/C=C/c2ccccc2)C1c1cccc([N+](=O)[O-])c1 (stereo not shown) [Cilnidipine, cilnidipine], the “SHAQ Overall Change in Severity, Percent Change from Baseline, Max” value was −26.8%, the “SHAQ Overall Change in Severity, Percent Change from Baseline, Mean (SD)” value was −56.96 (38.271) % and the “SHAQ Overall Change in Severity, Percent Change from Baseline, Median” value was −44.12%. For the same compound, the “SHAQ Overall Change in Severity, Percent Change from Baseline, Min” value was −100.0%, the “SHAQ Overall Change in Severity, Percent Change from Baseline, Q1” value was −100.00% and the “SHAQ Overall Change in Severity, Percent Change from Baseline, Q3” value was −26.76%. For the same compound, the “SHAQ Standard disability index, Change from Baseline, Max” value was 0.00, 0.00, the “SHAQ Standard disability index, Change from Baseline, Mean (SD)” value was 0.0 (0.0000) and the “SHAQ Standard disability index, Change from Baseline, Median” value was 0.000. The “SHAQ Standard disability index, Change from Baseline, Min” value was 0.00, 0.00, the “SHAQ Standard disability index, Change from Baseline, Q1” value was 0.000, 0.000 and the “SHAQ Standard disability index, Change from Baseline, Q3” value was 0.000, 0.000. The “SHAQ Standard disability index, In Clinic Visit (Day 12), Max” value was 1.50, the “SHAQ Standard disability index, In Clinic Visit (Day 12), Mean (SD)” value was 0.656 (0.7731) and the “SHAQ Standard disability index, In Clinic Visit (Day 12), Median” value was 0.563. The “SHAQ Standard disability index, In Clinic Visit (Day 12), Min” value was 0.00, the “SHAQ Standard disability index, In Clinic Visit (Day 12), Q1” value was 0.000 and the “SHAQ Standard disability index, In Clinic Visit (Day 12), Q3” value was 1.313. For the same compound, the “SHAQ Standard disability index, Percent Change from Baseline, Max” value was 0.0, 0.0%, the “SHAQ Standard disability index, Percent Change from Baseline, Mean (SD)” value was 0.0 (0.000) % and the “SHAQ Standard disability index, Percent Change from Baseline, Median” value was 0.00%. The “SHAQ Standard disability index, Percent Change from Baseline, Min” value was 0.0, 0.0%, the “SHAQ Standard disability index, Percent Change from Baseline, Q1” value was 0.00, 0.00% and the “SHAQ Standard disability index, Percent Change from Baseline, Q3” value was 0.00, 0.00%. For the same compound, the “SHAQ Visual Analog Scale-Breathing Problems, Change from Baseline, Max” value was 0.00, the “SHAQ Visual Analog Scale-Breathing Problems, Change from Baseline, Mean (SD)” value was −0.300 (0.6000) and the “SHAQ Visual Analog Scale-Breathing Problems, Change from Baseline, Median” value was 0.000. For the same compound, the “SHAQ Visual Analog Scale-Breathing Problems, Change from Baseline, Min” value was −1.20, the “SHAQ Visual Analog Scale-Breathing Problems, Change from Baseline, Q1” value was −0.600 and the “SHAQ Visual Analog Scale-Breathing Problems, Change from Baseline, Q3” value was 0.000. For the same compound, the “SHAQ Visual Analog Scale-Breathing Problems, In Clinic Visit (Day 12), Max” value was 6.30, the “SHAQ Visual Analog Scale-Breathing Problems, In Clinic Visit (Day 12), Mean (SD)” value was 1.575 (3.1500) and the “SHAQ Visual Analog Scale-Breathing Problems, In Clinic Visit (Day 12), Median” value was 0.000. For the same compound, the “SHAQ Visual Analog Scale-Breathing Problems, In Clinic Visit (Day 12), Min” value was 0.00, the “SHAQ Visual Analog Scale-Breathing Problems, In Clinic Visit (Day 12), Q1” value was 0.000 and the “SHAQ Visual Analog Scale-Breathing Problems, In Clinic Visit (Day 12), Q3” value was 3.150. The “SHAQ Visual Analog Scale-Breathing Problems, Percent Change from Baseline, Max” value was −16.0, −16.0%, the “SHAQ Visual Analog Scale-Breathing Problems, Percent Change from Baseline, Mean (SD)” value was −16.00% and the “SHAQ Visual Analog Scale-Breathing Problems, Percent Change from Baseline, Median” value was −16.00%. The “SHAQ Visual Analog Scale-Breathing Problems, Percent Change from Baseline, Min” value was −16.0, −16.0%, the “SHAQ Visual Analog Scale-Breathing Problems, Percent Change from Baseline, Q1” value was −16.00, −16.00% and the “SHAQ Visual Analog Scale-Breathing Problems, Percent Change from Baseline, Q3” value was −16.00, −16.00%. For the same compound, the “SHAQ Visual Analog Scale-Intestinal Problems, Change from Baseline, Max” value was 0.00, the “SHAQ Visual Analog Scale-Intestinal Problems, Change from Baseline, Mean (SD)” value was −1.875 (2.1838) and the “SHAQ Visual Analog Scale-Intestinal Problems, Change from Baseline, Median” value was −1.550. The “SHAQ Visual Analog Scale-Intestinal Problems, Change from Baseline, Min” value was −4.40, the “SHAQ Visual Analog Scale-Intestinal Problems, Change from Baseline, Q1” value was −3.700 and the “SHAQ Visual Analog Scale-Intestinal Problems, Change from Baseline, Q3” value was −0.050. The “SHAQ Visual Analog Scale-Intestinal Problems, In Clinic Visit (Day 12), Max” value was 3.80, the “SHAQ Visual Analog Scale-Intestinal Problems, In Clinic Visit (Day 12), Mean (SD)” value was 1.100 (1.8221) and the “SHAQ Visual Analog Scale-Intestinal Problems, In Clinic Visit (Day 12), Median” value was 0.300. The “SHAQ Visual Analog Scale-Intestinal Problems, In Clinic Visit (Day 12), Min” value was 0.00, the “SHAQ Visual Analog Scale-Intestinal Problems, In Clinic Visit (Day 12), Q1” value was 0.000 and the “SHAQ Visual Analog Scale-Intestinal Problems, In Clinic Visit (Day 12), Q3” value was 2.200. The “SHAQ Visual Analog Scale-Intestinal Problems, Percent Change from Baseline, Max” value was −44.1%, the “SHAQ Visual Analog Scale-Intestinal Problems, Percent Change from Baseline, Mean (SD)” value was −77.37 (29.418) % and the “SHAQ Visual Analog Scale-Intestinal Problems, Percent Change from Baseline, Median” value was −88.00%. For the same compound, the “SHAQ Visual Analog Scale-Intestinal Problems, Percent Change from Baseline, Min” value was −100.0%, the “SHAQ Visual Analog Scale-Intestinal Problems, Percent Change from Baseline, Q1” value was −100.00% and the “SHAQ Visual Analog Scale-Intestinal Problems, Percent Change from Baseline, Q3” value was −44.12%. For the same compound, the “SHAQ Visual Analog Scale-Pain, Change from Baseline, Max” value was 0.30, the “SHAQ Visual Analog Scale-Pain, Change from Baseline, Mean (SD)” value was −0.100 (0.4243) and the “SHAQ Visual Analog Scale-Pain, Change from Baseline, Median” value was 0.000. The “SHAQ Visual Analog Scale-Pain, Change from Baseline, Min” value was −0.70, the “SHAQ Visual Analog Scale-Pain, Change from Baseline, Q1” value was −0.350 and the “SHAQ Visual Analog Scale-Pain, Change from Baseline, Q3” value was 0.150. The “SHAQ Visual Analog Scale-Pain, In Clinic Visit (Day 12), Max” value was 3.60, the “SHAQ Visual Analog Scale-Pain, In Clinic Visit (Day 12), Mean (SD)” value was 1.875 (1.6641) and the “SHAQ Visual Analog Scale-Pain, In Clinic Visit (Day 12), Median” value was 1.950. The “SHAQ Visual Analog Scale-Pain, In Clinic Visit (Day 12), Min” value was 0.00, the “SHAQ Visual Analog Scale-Pain, In Clinic Visit (Day 12), Q1” value was 0.500 and the “SHAQ Visual Analog Scale-Pain, In Clinic Visit (Day 12), Q3” value was 3.250. The “SHAQ Visual Analog Scale-Pain, Percent Change from Baseline, Max” value was 11.5%, the “SHAQ Visual Analog Scale-Pain, Percent Change from Baseline, Mean (SD)” value was −9.88 (27.711) % and the “SHAQ Visual Analog Scale-Pain, Percent Change from Baseline, Median” value was 0.00%. The “SHAQ Visual Analog Scale-Pain, Percent Change from Baseline, Min” value was −41.2%, the “SHAQ Visual Analog Scale-Pain, Percent Change from Baseline, Q1” value was −41.18% and the “SHAQ Visual Analog Scale-Pain, Percent Change from Baseline, Q3” value was 11.54%. For the same compound, the “SHAQ Visual Analog Scale-Raynaud's, Change from Baseline, Max” value was 1.50, the “SHAQ Visual Analog Scale-Raynaud's, Change from Baseline, Mean (SD)” value was 0.325 (1.0468) and the “SHAQ Visual Analog Scale-Raynaud's, Change from Baseline, Median” value was 0.350. The “SHAQ Visual Analog Scale-Raynaud's, Change from Baseline, Min” value was −0.90, the “SHAQ Visual Analog Scale-Raynaud's, Change from Baseline, Q1” value was −0.500 and the “SHAQ Visual Analog Scale-Raynaud's, Change from Baseline, Q3” value was 1.150. The “SHAQ Visual Analog Scale-Raynaud's, In Clinic Visit (Day 12), Max” value was 4.30.
